Patent publication US8465945B2, “Method for production and use of mite group 1 proteins” (Merck Patent GmbH, priority 1999, dated 2013)

Key:
[1] = biological target: T1, P. pastoris-expressed Der f 1 protein (Dermatophagoides farinae, UniProt P16311, D282V); test: Inhibition of rDer f 1 cysteine protease activity by E-64; format: biochemical, D. farinae; settings: E-64 1 μg/ml
T1 construct: The Der f 1 protein secreted as a mature form by recombinant cell P. pastoris HCY215; S. cerevisiae alpha factor signal peptide (with KEX2 site and Glu-Ala spacer) (N, cleaved yes); made in house; host or cells: Pichia pastoris strain X33 transformed with pBC128 (recombinant cell HCY215)
T1 sequence (P16311 99-321 D282V): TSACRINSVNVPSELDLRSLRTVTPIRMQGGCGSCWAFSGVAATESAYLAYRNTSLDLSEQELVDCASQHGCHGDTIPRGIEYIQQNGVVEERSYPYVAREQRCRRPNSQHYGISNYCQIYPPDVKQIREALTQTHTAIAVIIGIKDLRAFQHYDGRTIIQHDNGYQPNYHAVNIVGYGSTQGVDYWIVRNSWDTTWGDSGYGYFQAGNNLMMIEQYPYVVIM
Procedure: Native Der f 1 is believed to be a cysteine protease, based on homology to papain; see, for example, Chua et al, 1992, J Exp Med 167, 175-182. The Der f 1 protein secreted as a mature form by recombinant cell P. pastoris HCY215 (i.e., P. pastoris strain X33 transformed with plasmid pBC128 containing nucleic acid molecule nDerf1909b (coding strand of SEQ ID NO:28) which encodes the pro-form of Der f 1 (amino acid sequence SEQ ID NO:29)) was tested for cysteine protease activity in the following manner. Three concentrations of protein were tested for their abilities to cleave an artificial substrate in the presence or absence of a cysteine protease inhibitor. Specifically, three pairs of samples containing 0.56 μg, 1.1 μg, or 5.6 μg of P. pastoris-expressed Der f 1 protein, respectively, were incubated for 30 minutes at room temperature in 20 μl of 50 mM Tris-HCl, pH 8. One member of each pair also contained the irreversible cysteine protease inhibitor E-64 at a concentration of 1 μg/ml. After the pre-incubation, 100 μl of 50 μM quenched fluorogenic substrate z-Val-Leu-Arg-AMC (available from Enzyme Systems Products, Livermore, Calif.) was added to all six samples, and the samples were incubated for 2 hours at room temperature. Fluorescence was measured using a Perkin Elmer Luminescence Spectrometer (model #LS50B) at an excitation wavelength of 380nm and an emission wavelength of 460 nm.

IgE = settings: cited from earlier work; for IgE reactivity relative to the native protein: literature reports (Chua et al 1992; Shoji et al 1996, 1997)

## CC(C)C[C@H](NC(=O)[C@H]1O[C@@H]1C(=O)O)C(=O)NCCCCN=C(N)N [E-64]
[1]; 0.56 micrograms rDer f 1
  % Inhibition E-64: 65%
[1]; 1.1 micrograms rDer f 1
  % Inhibition E-64: 55%
[1]; 5.6 micrograms rDer f 1
  % Inhibition E-64: 76%

B1: Der f 1 pro-form: Recombinant Der f 1 pro-form from baculovirus expression system in insect cells (Shoji et al) (protein, listed as Dermatophagoides farinae)
chain: RPASIKTFEEFKKAFNKNYATVEEEEVARKNFLESLKYVEANKGAINHLSDLSLDEFKNRYLMSAEAFEQLKTQFDLNAETSACRINSVNVPSELDLRSLRTVTPIRMQGGCGSCWAFSGVAATESAYLAYRNTSLDLSEQELVDCASQHGCHGDTIPRGIEYIQQNGVVEERSYPYVAREQRCRRPNSQHYGISNYCQIYPPDVKQIREALTQTHTAIAVIIGIKDLRAFQHYDGRTIIQHDNGYQPNYHAVNIVGYGSTQGDDYWIVRNSWDTTWGDSGYGYFQAGNNLMMIEQYPYVVIM
IgE
  IgE reactivity relative to the native protein: 20%

B2: S. cerevisiae-expressed Der p 1 proenzyme: Recombinant Der p 1 pro-form produced in S. cerevisiae, solubilized and renatured (Chua et al) (protein, UniProt P08176 19-320, looked up)
pro-form: RPSSIKTFEEYKKAFNKSYATFEDEEAARKNFLESVKYVQSNGGAINHLSDLSLDEFKNRFLMSAEAFEHLKTQFDLNAETNACSINGNAPAEIDLRQMRTVTPIRMQGGCGSCWAFSGVAATESAYLAYRNQSLDLAEQELVDCASQHGCHGDTIPRGIEYIQHNGVVQESYYRYVAREQSCRRPNAQRFGISNYCQIYPPNVNKIREALAQTHSAIAVIIGIKDLDAFRHYDGRTIIQRDNGYQPNYHAVNIVGYSNAQGVDYWIVRNSWDTNWGDNGYGYFAANIDLMMIEEYPYVVIL
modifications: pro-form S. cerevisiae-expressed
IgE; Chua et al
  sera reactive, of 11 sera reactive with the native protein: 9
IgE
  IgE reactivity relative to the native protein: about 80%
